This passage reports T/C results from PubChem BioAssay AID256 (DTP/NCI, 2004).

The test system of this assay is CD2F1 mice, L1210 leukemia ip, survival T/C. Description: NCI In Vivo Anticancer Drug Screen. Data for tumor model L1210 Leukemia (intraperitoneal) in CD2F1 (CDF1) mice. The note with it: higher = longer survival. The gist of the method:
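Mice carrying a transplanted tumor received test compound or vehicle alone. The value is the measurement in the treated group divided by that in the vehicle-treated control group.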

Where [1] appears, read: endpoint: mean survival time, dose: 100.0 mg/kg/injection, schedule: Q01DX001 (ip), vehicle: saline.
Where [2] appears, read: endpoint: mean survival time, dose: 200.0 mg/kg/injection, schedule: Q01DX001 (ip), vehicle: saline.
The mark [3] stands for this setting: endpoint: mean survival time, dose: 400.0 mg/kg/injection, schedule: Q01DX001 (ip), vehicle: saline.
[4] abbreviates: endpoint: mean survival time, dose: 100.0 mg/kg/injection, schedule: Q01DX009 (ip), vehicle: saline.
Where [5] appears, read: endpoint: mean survival time, dose: 200.0 mg/kg/injection, schedule: Q01DX009 (ip), vehicle: saline.
The mark [6] stands for this setting: endpoint: mean survival time, dose: 50.0 mg/kg/injection, schedule: Q01DX009 (ip), vehicle: saline with Tween-80.
[7] abbreviates: endpoint: mean survival time, dose: 100.0 mg/kg/injection, schedule: Q01DX001 (ip), vehicle: saline with Tween-80.
Where [8] appears, read: endpoint: mean survival time, dose: 100.0 mg/kg/injection, schedule: Q04DX003 (ip), vehicle: saline with Tween-80.
[9] abbreviates: endpoint: mean survival time, dose: 200.0 mg/kg/injection, schedule: Q04DX003 (ip), vehicle: saline with Tween-80.
Where [10] appears, read: endpoint: mean survival time, dose: 400.0 mg/kg/injection, schedule: Q04DX003 (ip), vehicle: saline with Tween-80.

Where “and” joins values, the source holds several entries; their conditions need not be identical. Equal values may be shown once. Inconclusive results and toxic doses are left out.

`O=C1OC(C(=O)O)Cc2ccccc21` (stereo not given): the T/C runs as follows: (endpoint: mean survival time, dose: 50.0 mg/kg/injection, schedule: Q01DX001 (ip), vehicle: saline) 102 % of control; under setting [1], 100 % of control; under setting [2], 110 % of control; under setting [3], 103 % of control.
For the molecule `c1ccc2c[n+](C[n+]3ccc4ccccc4c3)ccc2c1`, the T/C (endpoint: mean survival time, dose: 50.0 mg/kg/injection, schedule: Q01DX009 (ip), vehicle: saline) is 96 % of control; the T/C under setting [4] was 102 % of control; the T/C under setting [5] was 102 % of control.
As for `CC(=O)OC(OC(C)=O)c1cccc([N+](=O)[O-])c1`, the T/C is 102 % of control (endpoint: mean survival time, dose: 100.0 mg/kg/injection, schedule: Q01DX009 (ip), vehicle: saline with Tween-80); 93 % of control (endpoint: mean survival time, dose: 200.0 mg/kg/injection, schedule: Q01DX009 (ip), vehicle: saline with Tween-80); 96 % of control (endpoint: mean survival time, dose: 400.0 mg/kg/injection, schedule: Q01DX009 (ip), vehicle: saline with Tween-80).
Turning to `COc1ccc(C=NCCO)cc1OC`, the T/C runs as follows: (endpoint: median survival time, dose: 50.0 mg/kg/injection, schedule: Q04DX002 (ip), vehicle: saline with Tween-80) 111 % of control; (endpoint: median survival time, dose: 100.0 mg/kg/injection, schedule: Q04DX002 (ip), vehicle: saline with Tween-80) 100 % of control; (endpoint: median survival time, dose: 200.0 mg/kg/injection, schedule: Q04DX002 (ip), vehicle: saline with Tween-80) 100 % of control; (endpoint: median survival time, dose: 400.0 mg/kg/injection, schedule: Q04DX002 (ip), vehicle: saline with Tween-80) 100 % of control.
With `O=[N+]([O-])c1ccc(S(=O)(=O)C/C=C/CCl)c([N+](=O)[O-])c1`, the T/C is 102 % of control (endpoint: mean survival time, dose: 25.0 mg/kg/injection, schedule: Q01DX009 (ip), vehicle: saline with Tween-80); 95 % of control under setting [6]; 94 % of control under setting [7].
Take `S=C(N/N=C/c1ccccn1)N/N=C/c1ccccn1`: the T/C is 102 % of control (endpoint: mean survival time, dose: 20.0 mg/kg/injection, schedule: Q01DX009 (ip), vehicle: saline with Tween-80); 117 % of control (endpoint: mean survival time, dose: 33.0 mg/kg/injection, schedule: Q01DX009 (ip), vehicle: saline with Tween-80); 113 % of control under setting [6]; 119 % of control and 101 % of control (endpoint: mean survival time, dose: 75.0 mg/kg/injection, schedule: Q01DX009 (ip), vehicle: saline with Tween-80).
For `CC(=O)Nc1cc2c(ncn2C2OC(CO)C(O)C2O)c(Br)n1` (stereo not given), the T/C was 93 % of control (endpoint: mean survival time, dose: 12.5 mg/kg/injection, schedule: Q01DX005 (ip), vehicle: water); 94 % of control (endpoint: mean survival time, dose: 25.0 mg/kg/injection, schedule: Q01DX005 (ip), vehicle: water); 98 % of control (endpoint: mean survival time, dose: 50.0 mg/kg/injection, schedule: Q01DX005 (ip), vehicle: water); 94 % of control (endpoint: mean survival time, dose: 200.0 mg/kg/injection, schedule: Q01DX005 (ip), vehicle: water).
For the molecule `COc1ccc2c(c1)C1(C)C/C(=C\c3ccoc3)C(=O)C(C)C1CC2` (stereo not given), the T/C under setting [1] was 94 % of control, the T/C under setting [2] is 94 % of control and the T/C under setting [3] was 102 % of control.
As for `C=C1C(=O)OC2CC1C(OC(C)=O)CC1(C)OC1CCC1(C)OC1CCC2(C)O` (stereo not given), the T/C by setting is: (endpoint: mean survival time, dose: 6.25 mg/kg/injection, schedule: Q01DX009 (ip), vehicle: Klucel (hydroxypropylcellulose) (HPC)) 102 % of control; (endpoint: mean survival time, dose: 12.5 mg/kg/injection, schedule: Q01DX009 (ip), vehicle: Klucel (hydroxypropylcellulose) (HPC)) 107 % of control; (endpoint: mean survival time, dose: 25.0 mg/kg/injection, schedule: Q01DX009 (ip), vehicle: Klucel (hydroxypropylcellulose) (HPC)) 105 % of control.
`COC1OC(CO)C(O)C(NC(=O)N(C)N=O)C1O` (stereo not given): the T/C was 111 % of control (endpoint: mean survival time, dose: 12.5 mg/kg/injection, schedule: Q01DX009 (ip), vehicle: saline); 114 % of control (endpoint: mean survival time, dose: 25.0 mg/kg/injection, schedule: Q01DX009 (ip), vehicle: saline); 151 % of control under setting [4]; 157 % of control and 197 % of control under setting [5]; 95 % of control (endpoint: mean survival time, dose: 400.0 mg/kg/injection, schedule: Q01DX009 (ip), vehicle: saline); 121 % of control (endpoint: median survival time, dose: 25.0 mg/kg/injection, schedule: Q01DX009 (ip), vehicle: saline). For the same molecule, the T/C (endpoint: median survival time, dose: 100.0 mg/kg/injection, schedule: Q01DX009 (ip), vehicle: saline) is 159 % of control and 160 % of control; the T/C (endpoint: median survival time, dose: 144.0 mg/kg/injection, schedule: Q01DX005 (ip), vehicle: saline) is 158 % of control; the T/C (endpoint: median survival time, dose: 200.0 mg/kg/injection, schedule: Q01DX009 (ip), vehicle: saline) was 172 % of control and 209 % of control; the T/C (endpoint: median survival time, dose: 240.0 mg/kg/injection, schedule: Q01DX005 (ip), vehicle: saline) was 170 % of control and 172 % of control; the T/C (endpoint: median survival time, dose: 400.0 mg/kg/injection, schedule: Q01DX005 (ip), vehicle: saline) is 175 % of control and 225 % of control; the T/C (endpoint: median survival time, dose: 400.0 mg/kg/injection, schedule: Q01DX009 (ip), vehicle: saline) was 222 % of control and 236 % of control. Moreover, the T/C (endpoint: median survival time, dose: 666.66 mg/kg/injection, schedule: Q01DX005 (ip), vehicle: saline) was 233 % of control and the T/C (endpoint: median survival time, dose: 1111.11 mg/kg/injection, schedule: Q01DX005 (ip), vehicle: saline) is 92 % of control.
With `COc1ccc(/C=C(/C#N)C(N)=O)cc1Br`, the T/C runs as follows: (endpoint: mean survival time, dose: 50.0 mg/kg/injection, schedule: Q01DX009 (ip), vehicle: acetone) 96 % of control; (endpoint: mean survival time, dose: 100.0 mg/kg/injection, schedule: Q01DX009 (ip), vehicle: acetone) 98 % of control; (endpoint: mean survival time, dose: 200.0 mg/kg/injection, schedule: Q01DX009 (ip), vehicle: acetone) 93 % of control.
For `COc1cccc2c1C(=O)c1c(O)c3c(c(O)c1C2=O)C[C@@](O)(C(=O)COC(C)=O)C[C@@H]3OC1CC(N)C(O)C(C)O1` (stereo not given in full), the T/C was 156 % of control (endpoint: mean survival time, dose: 3.0 mg/kg/injection, schedule: Q01DX009 (ip), vehicle: saline) and 118 % of control (endpoint: mean survival time, dose: 3.0 mg/kg/injection, schedule: Q04DX003 (ip), vehicle: saline with Tween-80).
Regarding `CC(=O)Oc1cc2c3c(c1)CCCN3CCC2`, the T/C was 102 % of control (endpoint: mean survival time, dose: 5.0 mg/kg/injection, schedule: Q04DX003 (ip), vehicle: saline); 101 % of control (endpoint: mean survival time, dose: 6.25 mg/kg/injection, schedule: Q01DX009 (ip), vehicle: saline with Tween-80); 96 % of control (endpoint: mean survival time, dose: 12.5 mg/kg/injection, schedule: Q01DX009 (ip), vehicle: saline with Tween-80).
On to `C=C1N(c2cc3ccccc3o2)C(=O)OC12CCCCC2`, for which the T/C is 101 % of control under setting [7]; 98 % of control (endpoint: mean survival time, dose: 200.0 mg/kg/injection, schedule: Q01DX001 (ip), vehicle: saline with Tween-80); 91 % of control (endpoint: mean survival time, dose: 400.0 mg/kg/injection, schedule: Q01DX001 (ip), vehicle: saline with Tween-80).
Turning to `CCC1(O)C(=O)OCc2c1cc1n(c2=O)Cc2cc3ccc(O)cc3nc2-1` (stereo not given), the T/C reads like this: (endpoint: median survival time, dose: 3.75 mg/kg/injection, schedule: Q04DX002 (ip), vehicle: Klucel (hydroxypropylcellulose) (HPC)) 121 % of control; (endpoint: median survival time, dose: 7.5 mg/kg/injection, schedule: Q04DX002 (ip), vehicle: Klucel (hydroxypropylcellulose) (HPC)) 272 % of control; (endpoint: median survival time, dose: 15.0 mg/kg/injection, schedule: Q04DX002 (ip), vehicle: Klucel (hydroxypropylcellulose) (HPC)) 190 % of control; (endpoint: median survival time, dose: 30.0 mg/kg/injection, schedule: Q04DX002 (ip), vehicle: Klucel (hydroxypropylcellulose) (HPC)) 152 % of control; (endpoint: median survival time, dose: 60.0 mg/kg/injection, schedule: Q04DX002 (ip), vehicle: Klucel (hydroxypropylcellulose) (HPC)) 154 % of control and 357 % of control.
Take `CCCC(C#N)(CCCl)c1ccccc1` (stereo not given): the T/C reads like this: under setting [8], 101 % of control; under setting [9], 101 % of control; under setting [10], 96 % of control.
In the case of `CS(=O)(=O)OC1CCS(=O)(=O)c2ccccc21` (stereo not given), the T/C reads like this: (endpoint: mean survival time, dose: 100.0 mg/kg/injection, schedule: Q01DX001 (ip), vehicle: carboxymethylcellulose (CMC)) 97 % of control; (endpoint: mean survival time, dose: 200.0 mg/kg/injection, schedule: Q01DX001 (ip), vehicle: carboxymethylcellulose (CMC)) 97 % of control; (endpoint: mean survival time, dose: 400.0 mg/kg/injection, schedule: Q01DX001 (ip), vehicle: carboxymethylcellulose (CMC)) 97 % of control.
For `Cc1ccc(S(=O)(=O)OCCOCCOCCOS(=O)(=O)c2ccc(C)cc2)cc1`, the T/C reads like this: under setting [8], 101 % of control; under setting [9], 101 % of control; under setting [10], 101 % of control.
